Biological target: T1, thrombin (Homo sapiens, UniProt P00734)
T1 construct: protein cognates human α-thrombin and human α5β1-integrin immobilized on mica surfaces; purchased Abeam (so in the source)
Assay: AFM recognition imaging of thrombin on mica
Type: binding
Conditions: conjugate on Ni-coated MacMode silicon tip; protein 50 pg/μL
From the text: The AFM based recognition imaging is an effective tool for clinical diagnostics. The attachment and click chemistry of the disclosure works well in combination with the RI technique. Prior to this disclosure, the recognition imaging of clinically relevant proteins thrombin and integrin had not been reported. […] Linker 6a was tailored for RI. Its conjugate D-1a or P-1a was attached to Ni-coated MacMode tips (from Nanoworld) following the same protocol above mentioned. The protein samples (thrombin or α5β1 integrin) were deposited on mica using the same glutaraldehyde chemistry. However, the optimal protein concentration (50 pg/μL in 1×PBS buffer, pH 7.4) for the RI was […] lower than that for the force measurements, which was pre-determined by imaging the surface with bare AFM tips in the air mode, ensuring that the protein molecules were well distributed in a predefined area. For one measurement, only […] of protein sample is needed in the current setup. Thus, a few femtomoles of proteins can readily be detected by the AFM based recognition imaging. […] RI simultaneously produces both topographic and recognition images. Each bright round spot in the topographic image represents a protein molecule (thrombin in Panel A and integrin in panel D of FIG. 16). […]

Substance: D-1a: thrombin-binding DNA aptamer 5′-GGTTGGTGTGGTTGG, 3′-thiol, joined to PEG linker 6a by Michael addition (DNA, backbone not given here; 3'-thiol joined to PEG linker 6a by Michael addition)
- recognition of thrombin (topography vs recognition image): About 77%
